Data published in patent US5002972A, “Compound and composition of substituted hexenoic acid derivatives useful for treating thromboxane A2 mediated diseases” (Shionogi & Co., Ltd., priority 1989, dated 1991).

Legend:
washed platelets [1] = test: Inhibitory effect on collagen-induced platelet aggregation (antagonistic activity), rat washed platelets; type: cell-based; settings: 0.05 h, collagen 4 μg/ml as inducer, light transmission 3 minutes after inducer, read-out: Inhibition for Platelet Aggregation IC50
Description: (§1) From the abdominal artery of a male rat (Sprague-Dowley, 8 weeks old) was collected 10 ml of blood with a plastic syringe containing 1.5 ml of ACD (85 mM of sodium citrate, 70 mM of citric acid, 110 mM of glucose) and 20 μg of prostaglandin E1. The blood is placed in a plastic test tube, shaken moderately turning and centrifuged for 10 minutes at 160×g to give platelet rich plasma (PRP). To the prepared PRP was added apyrase (25 μg/ml) and the mixture was layered on 40% bovine serum albumin. The resulting mixture is centrifuged at 1200×g for 25 minutes. The platelet pellets suspended in a small amount of a buffer (137 mM of NaCl, 2.7 mM of KCl, 1.0 mM of MgCl2, 3.8 mM of NaH2 PO4, 3.8 mM of Hepes, 5.6 mM of glucose, 0.035% of bovine serum albumin, pH 7.35) was applied on 10 ml of Sephaose 2B column and eluted with such a buffer to prepare washed platelets.
(§2) The platelet aggregation reaction was measured by an aggregometer (NKK HEMA TRACER 1 MODEL PAT-6A.6M, Niko bioscience). In a measuring cuvette was placed 245 μl of the washed platelets of which platelet concentration was adjusted to 5×10^5 / μl and set in the aggregometer. The adjusted washed platelet was stirred (1000 rpm) at 37° C. and 3.8 μl of 0.1M of CaCl2 was added thereto. One minute later, 0.5 μl of a solution of a test compound in dimethylsulfoxide was added and 2 minutes later, 1 μl of collagen (Collagen reagent Horm®, HORMON-CHEMIE Munchen GMBH, final concentration 4 μg/ml) as an inducer for platelet aggregation was added. The platelet aggregation was monitored with an aggregometer in terms of the increase and decrease in light transmission.
Concentration of 50% inhibition was calculated from the inhibitory rate of aggregation (this correspondes to light transmission of a sample which is measured at 3 minutes after the addition of a platelet aggregating inducer, provided that light transmissions of the washed platelets and the buffer samples are taken as 0% and 100%, respectively.)

washed platelets [2] = test: Partial agonistic activity (shape change of rat platelets); type: cell-based; settings: Platelet, decrease in light transmission by test compound itself, 50% of maximal agonistic activity of reference compound, read-out: Activity of Partial Agonist EC50
Description: as §1, §2
The measurement of partial agonistic activity was carried out according to the method shown for platelet aggregation. To the washed platelets was added 0.1M of CaCl2 and one minute later a test compound was added thereto. The decrease in light transmission caused by the test compound itself was measured to estimate the activity.

[3] = Acute toxicity, intravenous, mice; settings: mouse, in vivo, male SclddY mice, tail vein injection in saline, mortality within 24 hours, Probit method
Description: Male SclddY mice (4-weekage, 23-27 g) were used. Each experimental group consists of 5 animals. After injecting the test compound dissolved in saline into a tial vein, the mortality within 24 hours was obtained as an LD50 value by the Probit method.

Structure (SMILES) | IC50 (washed platelets [1]) [nM] | EC50 (washed platelets [2]) [nM] | LD50 at 24 h [3] [mg/kg]
O=C(O)CCC/C=C\[C@H]1[C@@H]2CC[C@@H](C2)[C@@H]1NS(=O)(=O)c1ccccc1 [Ia-c, (1R,2R,3S,4S)-sodium (5Z)-6-(3-phenylsulfonylaminobicyclo[2.2.1]hept-2-yl)-5-hexenoate] | 6 | > 1000 | 237
Cc1ccc(S(=O)(=O)N[C@H]2[C@H]3CC[C@H](C3)[C@@H]2/C=C\CCCC(=O)O)cc1 [Ib-c, (1R,2R,3S,4S)-sodium (5Z)-6-[3-(p-tolylsulfonylamino)bicyclo[2.2.1]hept-2-yl]-5-hexenoate] | 6 | > 1000 | 
O=C(O)CCC/C=C\[C@H]1[C@@H]2CC[C@@H](C2)[C@@H]1NS(=O)(=O)c1ccc(O)cc1 [Ic-c, (1R,2R,3S,4S)-sodium (5Z)-6-[3-(4-hydroxyphenylsulfonylamino)bicyclo[2.2.1]hept-2-yl]-5-hexenoate] | 6 | 150 | 
O=S(=O)(N[C@H]1[C@H]2CC[C@H](C2)[C@@H]1/C=C\CCCc1nnn[nH]1)c1ccccc1 [If-c, (1R,2R,3S,4S)-3-phenylsulfonylamino-2-[(1Z)-5-(5-tetrazolyl)-1-pentenyl]bicyclo[2.2.1]heptane] | 4 | > 1000 | 209

Now from value to compound, other results behind:

IC50 (washed platelets [1]) [nM] | EC50 (washed platelets [2]) [nM] | Structure (SMILES) | LD50 at 24 h [3] [mg/kg]
5 | 130 | O=C(O)CCC/C=C\[C@H]1[C@@H]2CC[C@@H](C2)[C@@H]1NS(=O)(=O)c1ccc(Br)cc1 [Id-c, (1R,2R,3S,4S)-sodium (5Z)-6-[3-(4-bromophenylsulfonylamino)bicyclo[2.2.1]hept-2-yl]-5-hexenoate] | 
5 | 300 | O=C(O)CCC/C=C\[C@H]1[C@@H]2CC[C@@H](C2)[C@@H]1NS(=O)(=O)c1ccc(Cl)cc1 [Ie-c, (1R,2R,3S,4S)-sodium (5Z)-6-[3-(4-chlorophenylsulfonylamino)bicyclo[2.2.1]hept-2-yl]-5-hexenoate] | 
2 | 1 | Cc1ccc(S(=O)(=O)N[C@H]2[C@H]3CC[C@H](C3)[C@@H]2C/C=C\CCCC(=O)O)cc1 [Rf. Compd., reference compound] | 
